Consider three compounds from publication PMC8787434, “Discovery of Novel GR Ligands toward Druggable GR Antagonist Conformations Identified by MD Simulations and Markov State Model Analysis” (Advanced Science, 2021).

The target of test [1] is T1, GR (LanthaScreen TR-FRET GR Competitive Binding Assay) (Homo sapiens, UniProt P04150).
T1 construct: gene NR3C1
T1 sequence (P04150 521-777 limits assumed): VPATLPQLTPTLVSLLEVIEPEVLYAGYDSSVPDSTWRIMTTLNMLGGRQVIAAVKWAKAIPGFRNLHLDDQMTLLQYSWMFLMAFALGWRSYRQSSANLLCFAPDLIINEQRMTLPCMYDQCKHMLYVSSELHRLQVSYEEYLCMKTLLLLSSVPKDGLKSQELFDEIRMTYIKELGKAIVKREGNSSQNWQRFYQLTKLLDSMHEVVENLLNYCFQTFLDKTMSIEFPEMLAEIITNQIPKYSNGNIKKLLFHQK
The experiment in a line: LanthaScreen TR-FRET competitive binding assay. An excerpt: LanthaScreen TR-FRET competitive binding assay on GR (LanthaScreen TR-FRET GR Competitive Binding Assay)

In test [2] the target is T2, GR (pCMV-GR11 in Hela cells) (Homo sapiens, UniProt P04150).
T2 construct: gene NR3C1; GR expressed from pCMV-GR11 (Addgene #89105), transiently transfected in HeLa cells
T2 sequence (P04150 1-777): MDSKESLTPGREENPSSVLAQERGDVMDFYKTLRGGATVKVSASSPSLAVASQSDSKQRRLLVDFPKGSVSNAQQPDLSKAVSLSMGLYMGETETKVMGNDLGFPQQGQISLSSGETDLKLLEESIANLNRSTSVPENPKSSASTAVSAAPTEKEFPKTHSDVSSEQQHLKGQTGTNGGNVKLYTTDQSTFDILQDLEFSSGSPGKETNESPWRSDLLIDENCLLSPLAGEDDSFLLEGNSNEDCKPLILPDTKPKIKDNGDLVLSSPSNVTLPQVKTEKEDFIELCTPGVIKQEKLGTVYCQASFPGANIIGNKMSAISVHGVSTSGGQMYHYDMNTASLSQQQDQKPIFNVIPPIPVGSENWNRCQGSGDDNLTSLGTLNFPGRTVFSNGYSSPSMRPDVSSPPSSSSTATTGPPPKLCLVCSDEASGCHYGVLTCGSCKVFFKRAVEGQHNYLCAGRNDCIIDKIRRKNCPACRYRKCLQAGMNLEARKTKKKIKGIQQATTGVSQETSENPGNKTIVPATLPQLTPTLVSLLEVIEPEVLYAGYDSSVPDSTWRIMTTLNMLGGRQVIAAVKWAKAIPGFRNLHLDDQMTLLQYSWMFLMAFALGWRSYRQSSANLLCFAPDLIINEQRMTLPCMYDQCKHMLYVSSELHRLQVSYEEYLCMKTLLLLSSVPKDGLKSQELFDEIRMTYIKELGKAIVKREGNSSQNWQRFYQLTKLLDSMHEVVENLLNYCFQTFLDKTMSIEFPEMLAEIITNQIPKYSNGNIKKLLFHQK
The experiment in a line: NF-κB-Luc tethered transrepression reporter assay. The class given is cell-based. To be noted: read-out: Cell transrepression / NF-κb (IC50 μM). An excerpt:
NF-κB-Luc tethered transrepression reporter assay on GR (pCMV-GR11 in Hela cells)

In the case of `COc1ccccc1CN1Cc2cc(NS(=O)(=O)c3ccc(F)cc3)ccc2OC(C)C1=O` (stereo not drawn) [HP‐26], the figures for the IC50 in test [1] and in test [2] were 4.45 ± 0.36 µM and 12.2 ± 1.95 µM, respectively.

Consider `CC(=O)N1CCc2cc(S(=O)(=O)C(C)CC(=O)NCC(C)c3ccccc3)ccc21` (stereo not drawn) [HP‐24], for which the results for the IC50 in test [1] and in test [2] were 2.53 ± 0.12 µM and 2.71 ± 0.72 µM, respectively.

In the case of `Cc1ccc(S(=O)(=O)N2CCCc3cc(NS(=O)(=O)c4ccc(F)cc4C)ccc32)cc1` [HP‐67], the IC50 in test [1] turned out to be 1.57 ± 0.54 µM; in test [2], 2.76 ± 0.18 µM.
